Test results reported in patent publication US8058311B2, “Imaging 18F or 11C-labelled alkylthiophenyl guanidines” (Hammersmith Imanet Limited, priority 2005, dated 2011).

Assay: Biodistribution: radioactivity in rat brain tissue after intravenous injection
Assay type: in vivo
Conditions: for signal relative to cerebellum in hippocampus and cortex: IV injection; for radioactivity in blood / radioactivity in cerebellum / radioactivity in entorhinal cortex / radioactivity in hippocampus / radioactivity in hypothalamus / radioactivity in inferior colliculi / radioactivity in occipital cortex / radioactivity in olfactory tubercles / radioactivity in plasma (shown for comparison) / radioactivity in pons with medulla / radioactivity in prefrontal cortex / radioactivity in somatosensory cortex / radioactivity in striata / radioactivity in superior colliculi / radioactivity in thalamus: intravenous injection
Method: N-(2-Chloro-5-(2-[^18F]fluoro-ethylthio))-phenyl-N′-(3-methylthio)-phenyl-N′-methylguanidine was prepared according to Example 4 (synthesis formulation ˜3% ethanol in 0.9% w/v saline solution) with a radiochemical purity of ˜99% and, at time of injection, the specific activity ranged from 4-16 GBq/nmol^−1. Biodistribution and blood data were from 11 adult male Sprague-Dawley rats (body weight range, 269 to 329 g; mean±S.E.=300±18 g). N-(2-Chloro-5-(2-[^18F]fluoro-ethylthio))-phenyl-N′-(3-methylthio)-phenyl-N′-methylguanidine was injected directly into the tail vein of each rat whilst under isoflurane anaesthesia. Each animal was then allowed to recover from anaesthesia. At designated times after injection, rats were sacrificed by cervical dislocation under anaesthesia and brain and body tissues were rapidly sampled.
The data were acquired using two syntheses. Rats were given an average of 86 MBq (85.3 MBq for first experimental day and 87.3 MBq for the second experimental day), in a volume of 0.20 ml (synthesis formulation ˜3% alcohol), via direct intravenous injection through the tail vein. The mass of co-injected N-(2-Chloro-5-(2-[^18F]fluoro-ethylthio))-phenyl-N′-(3-methylthio)-phenyl-N′-methylguanidine ranged from 0.7-2.9 nmol.kg^−1. Details of the methodology, together with processing and counting of the samples can be found in Hume et al., Nucl. Med. Biol. (1991) 18: 339-351. Data were normalised for injected radioactivity and body weight, giving: ‘uptake units’=(cpm.g^−1 wet weight tissue)·(injected cpm.g^−1 body weight)^−1 Results
Radioactivity concentration data are additionally collated in Tables 1 (peripheral tissue) and 2 (brain). As metabolite studies were not carried out, the proportion of the total radioactivity reflecting label associated with parent N-(2-Chloro-5-(2-[^18F]fluoro-ethylthio))-phenyl-N′-(3-methylthio)-phenyl-N′-methylguanidine is not known. Note, Blood and plasma samples were collected post-mortem from the heart ventricle.

Question: For `CSc1cccc(N(C)C(=N)Nc2cc(SCC[18F])ccc2Cl)c1` [N-(2-Chloro-5-(2-[^18F]fluoro-ethylthio))-phenyl-N′-(3-methylthio)-phenyl-N′-methylguanidine], which “initial uptake in all brain tissues” value (2 minutes after IV injection) is on record?
Answer: ~4 uptake units

Question: And the “activity in all brain tissues” value (90 minutes after radioligand injection)?
Answer: ~0.4 uptake units

Question: And the “signal relative to cerebellum in hippocampus and cortex” value (“signal relative to cerebellum” below) (by 90 minutes)?
Answer: 1

Question: What about the “signal relative to cerebellum” value (reached over the first 40 minutes) of the same compound?
Answer: 1.3

Question: What about the “signal relative to cerebellum” value (start of the first 40 minutes) of the same compound?
Answer: ~0.8

Question: What about the “rat brain uptake of radioactivity” value (earliest sample time (2 min) after IV injection) of the same compound?
Answer: high uptake of radioactivity

Question: And the radioactivity in blood (2 min, n = 1)?
Answer: 0.288 uptake units

Question: What about the radioactivity in cerebellum (2 min, n = 1) of the same compound?
Answer: 4.204 uptake units

Question: What about the “radioactivity in entorhinal cortex” value (2 min, n = 1) of the same compound?
Answer: 2.766 uptake units

Question: And the radioactivity in hippocampus (2 min, n = 1)?
Answer: 2.864 uptake units

Question: And the radioactivity in hypothalamus (2 min, n = 1)?
Answer: 3.397 uptake units

Question: What about the “radioactivity in inferior colliculi” value (2 min, n = 1) of the same compound?
Answer: 6.716 uptake units

Question: What about the “radioactivity in occipital cortex” value (2 min, n = 1) of the same compound?
Answer: 4.008 uptake units

Question: What about the “radioactivity in olfactory tubercles” value (2 min, n = 1) of the same compound?
Answer: 2.826 uptake units

Question: What about the “radioactivity in plasma (shown for comparison)” value (“radioactivity in plasma” for short) (2 min, n = 1) of the same compound?
Answer: 0.264 uptake units

Question: What about the “radioactivity in pons with medulla” value (2 min, n = 1) of the same compound?
Answer: 3.678 uptake units

Question: What about the “radioactivity in prefrontal cortex” value (2 min, n = 1) of the same compound?
Answer: 3.808 uptake units

Question: What about the “radioactivity in somatosensory cortex” value (2 min, n = 1) of the same compound?
Answer: 3.531 uptake units

Question: What about the radioactivity in striata (2 min, n = 1) of the same compound?
Answer: 2.306 uptake units

Question: What about the “radioactivity in superior colliculi” value (2 min, n = 1) of the same compound?
Answer: 4.977 uptake units

Question: And the radioactivity in thalamus (2 min, n = 1)?
Answer: 4.460 uptake units

Question: What about the radioactivity in blood (5 min, n = 1) of the same compound?
Answer: 0.261 uptake units

Question: And the radioactivity in cerebellum (5 min, n = 1)?
Answer: 2.761 uptake units

Question: And the “radioactivity in entorhinal cortex” value (5 min, n = 1)?
Answer: 2.442 uptake units

Question: And the radioactivity in hippocampus (5 min, n = 1)?
Answer: 2.250 uptake units

Question: What about the radioactivity in hypothalamus (5 min, n = 1) of the same compound?
Answer: 2.443 uptake units

Question: And the “radioactivity in inferior colliculi” value (5 min, n = 1)?
Answer: 3.292 uptake units

Question: And the “radioactivity in occipital cortex” value (5 min, n = 1)?
Answer: 2.883 uptake units

Question: What about the “radioactivity in olfactory tubercles” value (5 min, n = 1) of the same compound?
Answer: 3.062 uptake units

Question: And the “radioactivity in plasma” value (5 min, n = 1)?
Answer: 0.135 uptake units

Question: And the “radioactivity in pons with medulla” value (5 min, n = 1)?
Answer: 2.877 uptake units

Question: And the “radioactivity in prefrontal cortex” value (5 min, n = 1)?
Answer: 3.099 uptake units

Question: What about the “radioactivity in somatosensory cortex” value (5 min, n = 1) of the same compound?
Answer: 2.772 uptake units

Question: And the radioactivity in striata (5 min, n = 1)?
Answer: 1.817 uptake units

Question: And the “radioactivity in superior colliculi” value (5 min, n = 1)?
Answer: 3.541 uptake units

Question: What about the radioactivity in thalamus (5 min, n = 1) of the same compound?
Answer: 2.566 uptake units

Question: And the radioactivity in blood (10 min, n = 2)?
Answer: 0.146 uptake units

Question: What about the radioactivity in cerebellum (10 min, n = 2) of the same compound?
Answer: 1.451 uptake units

Question: What about the “radioactivity in entorhinal cortex” value (10 min, n = 2) of the same compound?
Answer: 1.404 uptake units

Question: And the radioactivity in hippocampus (10 min, n = 2)?
Answer: 1.396 uptake units

Question: And the radioactivity in hypothalamus (10 min, n = 2)?
Answer: 1.275 uptake units

Question: What about the “radioactivity in inferior colliculi” value (10 min, n = 2) of the same compound?
Answer: 1.539 uptake units

Question: What about the “radioactivity in occipital cortex” value (10 min, n = 2) of the same compound?
Answer: 1.651 uptake units

Question: What about the “radioactivity in olfactory tubercles” value (10 min, n = 2) of the same compound?
Answer: 1.300 uptake units

Question: And the “radioactivity in plasma” value (10 min, n = 2)?
Answer: 0.102 uptake units

Question: What about the “radioactivity in pons with medulla” value (10 min, n = 2) of the same compound?
Answer: 1.530 uptake units

Question: And the “radioactivity in prefrontal cortex” value (10 min, n = 2)?
Answer: 1.649 uptake units

Question: What about the “radioactivity in somatosensory cortex” value (10 min, n = 2) of the same compound?
Answer: 1.588 uptake units

Question: And the radioactivity in striata (10 min, n = 2)?
Answer: 1.433 uptake units

Question: And the “radioactivity in superior colliculi” value (10 min, n = 2)?
Answer: 1.677 uptake units

Question: And the radioactivity in thalamus (10 min, n = 2)?
Answer: 1.353 uptake units

Question: What about the radioactivity in blood (30 min, n = 3, mean ± SD) of the same compound?
Answer: 0.269 ± 0.042 uptake units

Question: And the radioactivity in cerebellum (30 min, n = 3, mean ± SD)?
Answer: 0.919 ± 0.110 uptake units

Question: What about the “radioactivity in entorhinal cortex” value (30 min, n = 3, mean ± SD) of the same compound?
Answer: 0.941 ± 0.086 uptake units

Question: And the radioactivity in hippocampus (30 min, n = 3, mean ± SD)?
Answer: 1.088 ± 0.142 uptake units

Question: And the radioactivity in hypothalamus (30 min, n = 3, mean ± SD)?
Answer: 1.076 ± 0.250 uptake units

Question: And the “radioactivity in inferior colliculi” value (30 min, n = 3, mean ± SD)?
Answer: 0.841 ± 0.084 uptake units

Question: And the “radioactivity in occipital cortex” value (30 min, n = 3, mean ± SD)?
Answer: 1.041 ± 0.067 uptake units

Question: What about the “radioactivity in olfactory tubercles” value (30 min, n = 3, mean ± SD) of the same compound?
Answer: 0.981 ± 0.235 uptake units

Question: And the “radioactivity in plasma” value (30 min, n = 3, mean ± SD)?
Answer: 0.229 ± 0.047 uptake units

Question: And the “radioactivity in pons with medulla” value (30 min, n = 3, mean ± SD)?
Answer: 1.110 ± 0.129 uptake units

Question: And the “radioactivity in prefrontal cortex” value (30 min, n = 3, mean ± SD)?
Answer: 1.168 ± 0.042 uptake units

Question: What about the “radioactivity in somatosensory cortex” value (30 min, n = 3, mean ± SD) of the same compound?
Answer: 1.037 ± 0.103 uptake units

Question: And the radioactivity in striata (30 min, n = 3, mean ± SD)?
Answer: 1.101 ± 0.202 uptake units

Question: What about the “radioactivity in superior colliculi” value (30 min, n = 3, mean ± SD) of the same compound?
Answer: 1.086 ± 0.286 uptake units

Question: What about the radioactivity in thalamus (30 min, n = 3, mean ± SD) of the same compound?
Answer: 1.415 ± 0.203 uptake units

Question: What about the radioactivity in blood (60 min, n = 3, mean ± SD) of the same compound?
Answer: 0.229 ± 0.068 uptake units

Question: And the radioactivity in cerebellum (60 min, n = 3, mean ± SD)?
Answer: 0.454 ± 0.082 uptake units

Question: What about the “radioactivity in entorhinal cortex” value (60 min, n = 3, mean ± SD) of the same compound?
Answer: 0.502 ± 0.095 uptake units

Question: And the radioactivity in hippocampus (60 min, n = 3, mean ± SD)?
Answer: 0.548 ± 0.119 uptake units

Question: And the radioactivity in hypothalamus (60 min, n = 3, mean ± SD)?
Answer: 0.533 ± 0.115 uptake units

Question: What about the “radioactivity in inferior colliculi” value (60 min, n = 3, mean ± SD) of the same compound?
Answer: 0.456 ± 0.079 uptake units

Question: What about the “radioactivity in occipital cortex” value (60 min, n = 3, mean ± SD) of the same compound?
Answer: 0.541 ± 0.124 uptake units

Question: And the “radioactivity in olfactory tubercles” value (60 min, n = 3, mean ± SD)?
Answer: 0.504 ± 0.062 uptake units

Question: And the “radioactivity in plasma” value (60 min, n = 3, mean ± SD)?
Answer: 0.222 ± 0.055 uptake units

Question: And the “radioactivity in pons with medulla” value (60 min, n = 3, mean ± SD)?
Answer: 0.551 ± 0.143 uptake units

Question: And the “radioactivity in prefrontal cortex” value (60 min, n = 3, mean ± SD)?
Answer: 0.519 ± 0.105 uptake units

Question: What about the “radioactivity in somatosensory cortex” value (60 min, n = 3, mean ± SD) of the same compound?
Answer: 0.517 ± 0.107 uptake units

Question: What about the radioactivity in striata (60 min, n = 3, mean ± SD) of the same compound?
Answer: 0.481 ± 0.136 uptake units

Question: What about the “radioactivity in superior colliculi” value (60 min, n = 3, mean ± SD) of the same compound?
Answer: 0.486 ± 0.101 uptake units

Question: What about the radioactivity in thalamus (60 min, n = 3, mean ± SD) of the same compound?
Answer: 0.553 ± 0.108 uptake units

Question: What about the radioactivity in blood (90 min, n = 1) of the same compound?
Answer: 0.180 uptake units

Question: What about the radioactivity in cerebellum (90 min, n = 1) of the same compound?
Answer: 0.366 uptake units

Question: And the “radioactivity in entorhinal cortex” value (90 min, n = 1)?
Answer: 0.383 uptake units

Question: And the radioactivity in hippocampus (90 min, n = 1)?
Answer: 0.391 uptake units

Question: And the radioactivity in hypothalamus (90 min, n = 1)?
Answer: 0.466 uptake units

Question: And the “radioactivity in inferior colliculi” value (90 min, n = 1)?
Answer: 0.306 uptake units

Question: And the “radioactivity in occipital cortex” value (90 min, n = 1)?
Answer: 0.423 uptake units

Question: What about the “radioactivity in olfactory tubercles” value (90 min, n = 1) of the same compound?
Answer: 0.504 uptake units

Question: What about the “radioactivity in plasma” value (90 min, n = 1) of the same compound?
Answer: 0.163 uptake units

Question: And the “radioactivity in pons with medulla” value (90 min, n = 1)?
Answer: 0.406 uptake units

Question: And the “radioactivity in prefrontal cortex” value (90 min, n = 1)?
Answer: 0.414 uptake units

Question: What about the “radioactivity in somatosensory cortex” value (90 min, n = 1) of the same compound?
Answer: 0.376 uptake units

Question: And the radioactivity in striata (90 min, n = 1)?
Answer: 0.485 uptake units

Question: What about the “radioactivity in superior colliculi” value (90 min, n = 1) of the same compound?
Answer: 0.386 uptake units

Question: And the radioactivity in thalamus (90 min, n = 1)?
Answer: 0.551 uptake units
